For assay [1], the target named is T1, Ubiquitin carboxyl-terminal hydrolase 2 (Homo sapiens, UniProt O75604).
T1 sequence (O75604 whole entry): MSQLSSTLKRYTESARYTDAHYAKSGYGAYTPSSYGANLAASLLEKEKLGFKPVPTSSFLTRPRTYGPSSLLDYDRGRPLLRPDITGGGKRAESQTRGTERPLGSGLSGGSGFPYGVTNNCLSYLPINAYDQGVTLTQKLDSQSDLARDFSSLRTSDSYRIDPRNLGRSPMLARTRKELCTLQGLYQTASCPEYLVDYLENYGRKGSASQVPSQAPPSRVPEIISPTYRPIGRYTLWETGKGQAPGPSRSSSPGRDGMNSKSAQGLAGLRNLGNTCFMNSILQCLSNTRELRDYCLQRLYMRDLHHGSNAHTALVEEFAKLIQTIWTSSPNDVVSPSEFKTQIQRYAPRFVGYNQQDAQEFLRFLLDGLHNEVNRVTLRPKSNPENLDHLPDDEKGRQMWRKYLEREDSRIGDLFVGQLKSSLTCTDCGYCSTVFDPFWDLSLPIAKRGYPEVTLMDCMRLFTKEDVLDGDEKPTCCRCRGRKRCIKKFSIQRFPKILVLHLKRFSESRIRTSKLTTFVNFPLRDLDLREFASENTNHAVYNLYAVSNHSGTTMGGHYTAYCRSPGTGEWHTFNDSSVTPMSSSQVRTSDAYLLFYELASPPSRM
Nature of the assay: Inhibition of human USP2 (258 to 605 residues) catalytic domain by fluorescence based assay.

The target in assay [2] is T2, Ubiquitin carboxyl-terminal hydrolase 7 (Homo sapiens, UniProt Q93009). Briefly: Inhibition of human USP7 using Ub-AMC as substrate.
T2 sequence (Q93009 whole entry): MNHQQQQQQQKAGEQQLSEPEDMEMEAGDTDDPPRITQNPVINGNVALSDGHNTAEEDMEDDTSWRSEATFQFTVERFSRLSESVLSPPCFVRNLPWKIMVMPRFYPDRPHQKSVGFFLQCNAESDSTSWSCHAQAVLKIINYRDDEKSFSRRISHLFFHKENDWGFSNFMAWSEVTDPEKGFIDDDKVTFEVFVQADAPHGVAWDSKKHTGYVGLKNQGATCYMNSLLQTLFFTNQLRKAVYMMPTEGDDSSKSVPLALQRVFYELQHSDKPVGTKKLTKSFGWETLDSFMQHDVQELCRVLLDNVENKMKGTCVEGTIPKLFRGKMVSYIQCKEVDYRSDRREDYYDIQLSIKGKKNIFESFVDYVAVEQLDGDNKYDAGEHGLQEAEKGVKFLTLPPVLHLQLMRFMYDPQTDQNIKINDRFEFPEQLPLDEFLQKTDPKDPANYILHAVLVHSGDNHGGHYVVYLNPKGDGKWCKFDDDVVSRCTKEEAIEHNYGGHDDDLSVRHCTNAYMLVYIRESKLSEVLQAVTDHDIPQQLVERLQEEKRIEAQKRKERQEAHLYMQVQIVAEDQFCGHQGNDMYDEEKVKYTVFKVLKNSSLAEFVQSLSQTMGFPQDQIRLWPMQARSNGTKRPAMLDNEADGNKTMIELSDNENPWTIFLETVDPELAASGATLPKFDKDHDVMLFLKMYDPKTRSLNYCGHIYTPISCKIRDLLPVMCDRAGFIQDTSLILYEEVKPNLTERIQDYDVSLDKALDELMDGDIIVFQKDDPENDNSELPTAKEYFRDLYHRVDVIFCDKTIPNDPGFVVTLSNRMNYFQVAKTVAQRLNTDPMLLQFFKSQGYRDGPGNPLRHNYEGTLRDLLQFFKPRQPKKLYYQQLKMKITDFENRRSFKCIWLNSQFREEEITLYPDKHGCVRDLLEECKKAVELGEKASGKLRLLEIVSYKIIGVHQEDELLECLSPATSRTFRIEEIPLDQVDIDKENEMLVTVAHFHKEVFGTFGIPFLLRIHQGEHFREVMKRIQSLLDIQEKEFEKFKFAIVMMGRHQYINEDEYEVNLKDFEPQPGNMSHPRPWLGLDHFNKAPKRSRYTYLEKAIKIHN
In assay [3] the target is T3, Ubiquitin carboxyl-terminal hydrolase 8 (Homo sapiens, UniProt P40818).
T3 sequence (P40818 whole entry): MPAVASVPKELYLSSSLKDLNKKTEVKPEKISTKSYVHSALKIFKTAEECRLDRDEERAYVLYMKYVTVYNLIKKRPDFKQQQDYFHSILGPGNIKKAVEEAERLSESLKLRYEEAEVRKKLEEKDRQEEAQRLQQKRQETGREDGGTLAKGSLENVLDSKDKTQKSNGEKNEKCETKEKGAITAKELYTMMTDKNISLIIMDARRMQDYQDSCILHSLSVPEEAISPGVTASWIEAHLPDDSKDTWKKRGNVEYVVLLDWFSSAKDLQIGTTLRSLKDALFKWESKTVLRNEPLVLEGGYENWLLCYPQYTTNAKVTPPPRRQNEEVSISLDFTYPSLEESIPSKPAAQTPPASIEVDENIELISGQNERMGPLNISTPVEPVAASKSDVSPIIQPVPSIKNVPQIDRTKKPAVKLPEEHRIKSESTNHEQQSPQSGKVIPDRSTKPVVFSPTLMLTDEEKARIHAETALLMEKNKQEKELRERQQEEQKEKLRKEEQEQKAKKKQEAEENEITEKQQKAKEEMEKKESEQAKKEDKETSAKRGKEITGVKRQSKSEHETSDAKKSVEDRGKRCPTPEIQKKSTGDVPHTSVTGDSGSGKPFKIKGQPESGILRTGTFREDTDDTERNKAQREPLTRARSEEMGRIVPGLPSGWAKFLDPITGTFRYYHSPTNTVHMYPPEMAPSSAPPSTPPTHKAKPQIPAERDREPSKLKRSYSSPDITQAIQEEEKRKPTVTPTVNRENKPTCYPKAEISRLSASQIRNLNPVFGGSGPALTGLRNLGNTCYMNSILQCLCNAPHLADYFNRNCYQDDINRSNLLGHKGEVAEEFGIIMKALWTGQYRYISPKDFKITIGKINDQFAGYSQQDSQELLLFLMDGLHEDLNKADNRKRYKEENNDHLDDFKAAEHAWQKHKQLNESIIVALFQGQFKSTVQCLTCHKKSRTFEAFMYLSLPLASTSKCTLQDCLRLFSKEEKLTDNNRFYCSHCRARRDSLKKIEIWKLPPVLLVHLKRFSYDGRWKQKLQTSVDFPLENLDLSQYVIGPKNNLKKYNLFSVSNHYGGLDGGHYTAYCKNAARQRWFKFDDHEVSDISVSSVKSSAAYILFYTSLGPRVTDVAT
Briefly: Inhibition of human USP8 using Ub-AMC as substrate.

In assay [4] the target is T2, Ubiquitin carboxyl-terminal hydrolase 7. Nature of the assay: Inhibition of human USP7 using ubiquitin-Rho as substrate incubated for 1 hrs.
Assay [5] shares this target. Briefly: Inhibition of human USP7 using ubiquitin-Rho110 as substrate incubated for 1 hrs.
The target is the same in assay [6]. Briefly: Inhibition of human USP7 using UbA10 as substrate incubated for 10 mins by TR-FRET assay. For orientation: TR-FRET usually uses a lanthanide donor and a delayed reading to cut background.
Assay [7] deals with T4, Ubiquitin carboxyl-terminal hydrolase 47 (Homo sapiens, UniProt Q96K76).
T4 sequence (Q96K76 whole entry): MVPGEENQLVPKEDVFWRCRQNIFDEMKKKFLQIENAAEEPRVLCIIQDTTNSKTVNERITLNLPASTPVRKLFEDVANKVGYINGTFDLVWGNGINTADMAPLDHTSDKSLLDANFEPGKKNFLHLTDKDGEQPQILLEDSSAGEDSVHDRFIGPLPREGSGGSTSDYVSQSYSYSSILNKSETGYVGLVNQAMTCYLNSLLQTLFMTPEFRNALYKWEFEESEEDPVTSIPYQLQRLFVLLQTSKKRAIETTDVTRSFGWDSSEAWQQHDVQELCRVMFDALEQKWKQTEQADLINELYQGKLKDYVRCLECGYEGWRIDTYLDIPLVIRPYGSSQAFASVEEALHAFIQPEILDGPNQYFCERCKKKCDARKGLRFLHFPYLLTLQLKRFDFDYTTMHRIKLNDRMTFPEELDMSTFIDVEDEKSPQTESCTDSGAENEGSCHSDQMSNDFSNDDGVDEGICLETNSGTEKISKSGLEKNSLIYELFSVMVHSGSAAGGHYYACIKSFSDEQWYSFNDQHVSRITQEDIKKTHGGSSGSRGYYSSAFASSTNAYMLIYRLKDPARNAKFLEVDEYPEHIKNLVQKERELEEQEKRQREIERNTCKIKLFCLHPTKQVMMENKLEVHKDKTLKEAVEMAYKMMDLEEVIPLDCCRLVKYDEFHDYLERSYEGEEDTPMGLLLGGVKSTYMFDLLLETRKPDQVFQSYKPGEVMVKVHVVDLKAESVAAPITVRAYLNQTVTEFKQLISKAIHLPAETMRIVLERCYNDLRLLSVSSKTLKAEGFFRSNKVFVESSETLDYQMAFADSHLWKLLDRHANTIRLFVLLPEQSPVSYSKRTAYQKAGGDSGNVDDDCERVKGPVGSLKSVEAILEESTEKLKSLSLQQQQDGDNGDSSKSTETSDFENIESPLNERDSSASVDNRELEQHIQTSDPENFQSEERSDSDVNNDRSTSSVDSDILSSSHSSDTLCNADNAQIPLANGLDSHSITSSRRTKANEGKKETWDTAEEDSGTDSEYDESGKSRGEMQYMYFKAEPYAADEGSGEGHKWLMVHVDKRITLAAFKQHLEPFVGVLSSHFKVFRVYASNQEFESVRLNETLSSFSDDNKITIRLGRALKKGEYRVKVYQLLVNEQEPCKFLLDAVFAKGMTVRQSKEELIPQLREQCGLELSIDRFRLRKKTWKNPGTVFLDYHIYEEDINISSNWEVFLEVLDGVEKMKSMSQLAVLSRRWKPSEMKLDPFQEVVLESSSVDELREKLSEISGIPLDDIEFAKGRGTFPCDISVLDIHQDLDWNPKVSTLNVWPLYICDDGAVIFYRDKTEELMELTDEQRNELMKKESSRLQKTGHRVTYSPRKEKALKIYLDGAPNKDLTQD
Nature of the assay: Inhibition of USP47 (unknown origin).

Assay [8] concerns the target T3, Ubiquitin carboxyl-terminal hydrolase 8. Nature of the assay: Inhibition of USP8 (unknown origin).
The test system of assay [9] is HCT-116. Nature of the assay: Anticancer activity against human HCT-116 cells assessed as cell growth inhibition incubated for 6 days by MTT assay. Format: functional. The settings on record: HCT-116, 144 h, time 6 day, read-out: LD50 (the source's name).
Assay [10] in a line: Inhibition of USP2a (unknown origin). Set-up: species or system Homo sapiens.
Assay [11] deals with T5, Ubiquitin carboxyl-terminal hydrolase 28 (Homo sapiens, UniProt Q96RU2).
T5 sequence (Q96RU2 whole entry): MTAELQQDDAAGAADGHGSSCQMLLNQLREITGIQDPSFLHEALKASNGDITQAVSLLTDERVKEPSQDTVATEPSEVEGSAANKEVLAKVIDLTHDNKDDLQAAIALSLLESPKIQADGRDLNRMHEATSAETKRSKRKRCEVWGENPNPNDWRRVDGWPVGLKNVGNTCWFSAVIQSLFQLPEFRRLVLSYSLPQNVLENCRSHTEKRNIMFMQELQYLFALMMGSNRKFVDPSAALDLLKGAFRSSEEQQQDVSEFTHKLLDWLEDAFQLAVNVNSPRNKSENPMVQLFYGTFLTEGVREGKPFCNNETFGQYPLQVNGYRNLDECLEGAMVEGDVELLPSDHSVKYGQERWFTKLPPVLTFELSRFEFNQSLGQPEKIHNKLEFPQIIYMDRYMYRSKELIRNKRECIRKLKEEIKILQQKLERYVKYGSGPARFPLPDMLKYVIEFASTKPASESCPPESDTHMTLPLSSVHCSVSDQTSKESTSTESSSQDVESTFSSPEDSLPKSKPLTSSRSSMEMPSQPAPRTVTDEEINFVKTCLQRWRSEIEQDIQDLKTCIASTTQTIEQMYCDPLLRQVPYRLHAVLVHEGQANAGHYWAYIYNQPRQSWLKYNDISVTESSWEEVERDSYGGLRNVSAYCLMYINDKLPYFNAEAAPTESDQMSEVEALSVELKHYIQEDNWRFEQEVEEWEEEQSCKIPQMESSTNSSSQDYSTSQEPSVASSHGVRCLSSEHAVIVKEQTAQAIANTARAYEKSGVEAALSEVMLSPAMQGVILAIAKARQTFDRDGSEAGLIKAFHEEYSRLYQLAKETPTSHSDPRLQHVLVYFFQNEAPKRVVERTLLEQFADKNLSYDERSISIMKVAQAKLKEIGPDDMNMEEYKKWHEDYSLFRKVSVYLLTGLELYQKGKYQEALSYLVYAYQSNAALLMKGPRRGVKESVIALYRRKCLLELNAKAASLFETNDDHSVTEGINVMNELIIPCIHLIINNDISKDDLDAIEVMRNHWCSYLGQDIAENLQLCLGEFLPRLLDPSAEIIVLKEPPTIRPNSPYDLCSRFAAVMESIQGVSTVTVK
Briefly: Inhibition of USP28 (unknown origin) using […] as substrate by […] analysis.

By IC50 is commonly meant the concentration that gives 50% inhibition. Higher therefore signals a need for much substance. Take `Sc1ncnc2nc[nH]c12` [MERCAPTOPURINE ANHYDROUS]: the IC50 in [1] was above 100 µM.
With `N#Cc1nc2c(nc1C#N)-c1cc(Cl)ccc1C2=O`, the half-maximal inhibitory concentration (IC50) in assay [2] was found to be 2.55 µM; in assay [3], 0.133 µM.
`Nc1nc2nc[nH]c2c(=S)[nH]1` [THIOGUANINE]: the IC50 in assay [1] amounted to 42 µM.
`CCc1c(-c2ccc(C(=O)N(C)C)cc2)cnc(N)c1-c1ccc(O)cc1`: inhibition in assay [4] was half-maximal at 75.6 µM (IC50).
With `CCc1c(-c2cccc(NC(C)=O)c2)cnc(N)c1-c1cccs1`, the IC50 in assay [5] was above 63.3 µM.
Regarding `CCO/C(O)=C(\C#N)c1nc2c(nc1C#N)C(=O)c1ccccc1-2`, the IC50 in assay [2] and in [3] was above 100 µM each time.
Regarding `CCOc1nc2c(nc1C#N)C(=O)c1ccccc1-2`, the IC50 in assay [2] and in [3] was above 100 µM each time.
Turning to `CCc1c(-c2ccc(O)cc2)cnc(N)c1-c1ccc2cn[nH]c2c1`, in assay [6], the midpoint of inhibition, the IC50, lay at 0.61 µM.
In the case of `CO/C(O)=C(\C#N)c1nc2c(nc1C#N)C(=O)c1ccccc1-2`, the half-maximal inhibitory concentration (IC50) in [7] and in assay [8] was above 100 µM throughout.
In assay [4], `CCc1c(-c2ccc(O)cc2)cnc(N)c1-c1ccc(S(C)(=O)=O)cc1` returned an IC50 above 63.3 µM.
As to `C[C@H](CC(=O)NCC(=O)O)[C@H]1CC[C@H]2[C@@H]3CC[C@@H]4C[C@H](O)CC[C@]4(C)[C@H]3CC[C@]12C`, the CC50 in assay [9] is above 100 µM. Besides, in [10], the IC50 was above 50 µM.
Regarding `CCc1c(-c2ccc(O)cc2)cnc(N)c1-c1cccc(C)c1`, the IC50 in [4] is above 63.3 µM.
The molecule `Nc1ncc(-c2ccc(O)cc2)cc1-c1ccc(O)cc1` came in with a 50% inhibitory concentration (IC50) in assay [6] above 50 µM.
Molecule `OCCNCc1cc(Br)ccc1OCc1cc(F)c(F)cc1F` showed an IC50 in [11] of 2 µM.
`Nc1ncc(-c2ccccc2)cc1-c1ccc(O)cc1`: the IC50 in assay [6] amounted to 9.6 µM.
In [5], `CC(=O)Nc1cccc(-c2cnc(N)c(-c3ccc(O)cc3)c2C)c1` showed a 50% inhibitory concentration (IC50) of 42 µM.
On to `N#Cc1nc2c(nc1C#N)-c1ccc(Cl)cc1C2=O`, for which the values for the IC50 in [2], in assay [7] and in assay [8] were 0.4 µM, 0.4 µM and 0.96 µM, respectively.

(Values after ChEMBL document CHEMBL5233229, “Recent advances in the development of ubiquitin-specific-processing protease 7 (USP7) inhibitors” (Eur J Med Chem, 2020).)
